Results published in article PMC12737022, “Evaluations of Sex Differences in Dosimetry in Rats Following Perfluorohexanesulfonamide (PFHxSA) Oral Exposure” (Toxics, 2025).
≈ marks a conversion by molar mass, not a printed value. Where “and” joins values, the source holds several entries; their conditions need not be identical. Equal values may be shown once.

Legend:
[1] = design: method as in PMID 37756184; conditions: bariatric surgery patients; cited from earlier work
[2] = Ultracentrifugation plasma protein binding assay, human plasma; assay type: in vitro ADME
Description: Human and rat plasma were evaluated for plasma protein binding of PFHxSA and PFHxS using ultracentrifugation. Data generated in human plasma were obtained from an earlier study; for this study, data were generated in rat plasma following the same protocol as described by Smeltz et al.. SD rat plasma (pooled, mixed sex) was obtained from a commercial vendor (BioIVT, Westbury, NY, USA). Briefly, PFHxSA and PFHxS were added to the plasma to achieve a final assay concentration of 10 µM. Following a 1 h 37 °C incubation, 1 mL aliquots from each plasma solution were drawn in triplicate and transferred to polycarbonate ultracentrifuge tubes. These samples underwent ultracentrifugation (Beckman OptimaMax; Beckman Coulter Inc., Indianapolis, IN, USA) at 850,000× g for 4 h at 37 °C; after completion, the aqueous fraction (AF) was collected by transferring the supernatant to a new tube. Two sets of samples of the original PFAS-spiked whole plasma were also collected after a 1 h or a 5 h incubation at 37 °C. […]
Intrinsic hepatic clearance (Clint) and fraction unbound in plasma (fup) were calculated from the experimental point estimate data as described in Dobreniecki et al.. […] Renal clearance was calculated using the glomerular filtration rate (a species-dependent constant) and the fraction unbound in blood (fub), estimated by adjusting the experimental fup for blood/plasma partitioning. […]

[3] = Solubility and stability of PFHxSA corn oil dosing solutions; assay type: physicochemical; conditions: for Replicate percent recoveries, Day 5 / Replicate percent recoveries, Day 7 / Replicate percent recoveries, Day 14: relative to Day 0
Description: The stability of PFHxSA corn oil dosing solutions was also evaluated up to 14 days. PFHxSA solutions were prepared using the same lot number of the chemical as was used in Mutlu et al.. Solutions were prepared under an inert atmosphere at a 20,000 µg/mL (20 mg/mL) high-dose solution and a 2 µg/mL ([…]) low-dose solution to mimic the range of concentrations of the dosing formulations used for the in vivo study. Each batch included an MB and an LCS prepared from blank corn oil as QC. The solutions were split into two aliquots each. One aliquot was stored at 4 °C; the other aliquot was stored at room temperature, with both protected from light. The stability samples were analyzed in triplicate on Days 0, 5, 7, and 14 using the same extraction method and LC/MS/MS conditions outlined in SI Texts S2 and S3, respectively. Stability was assessed by using mean peak areas to calculate the percent recovery for each day of analysis relative to Day 0. Information on percent recovery calculation and additional experimental details concerning the stability study may be found in SI Text S2.
Text S1 Solvents and Additives for Analytical Chemistry
Solvents used for sample preparation and mobile phases include methanol (MeOH), water (H2O), and acetonitrile (ACN), which were LC/MS-grade and purchased from Honeywell Burdick & Jackson (Charlotte, NC, USA). Ammonium formate (BioUltra purity) and ammonium acetate (99% pure) were used as mobile phase additives and obtained from Millipore Sigma (St. Louis, MO, USA). Formic acid (FA; 97.5% pure) was also used as an additive; it was purchased from Honeywell Fluka. Detailed information for chemicals used for each analysis may be found in Table S1.
Text S2 Dosing-Solution Determination and Stability Assessment
Dosing solutions were extracted by liquid–liquid extraction using 50 uL aliquots of the dosing solutions and 950 uL of 0.1M formic acid in acetonitrile, vortexing the mixture at 2000 rpm, and centrifuging at 5400 × g for 10 minutes. The supernatants were drawn off and added to Waters Oasis Prime HLB 3cc 60mg (Waters, Milford, MA, USA) solid phase extraction (SPE) cartridges. Supernatants were allowed to elute through the cartridge via gravity. Finally, 100 uL of eluent was diluted using 100 uL of 1% formic acid in water. Extracts were further diluted with the extracted method blank (corn oil) to bring the concentrations to within the calibration range. Sample extracts were analyzed using the same LC/MS/MS method outlined for PFHxSA plasma and liver in Text S4. Samples were quantitated against a matrix-matched calibration curve containing a minimum of 5 points spanning 50-500 ng/mL in extract. […]
verification (CCV) sample and laboratory control sample (LCS) were injected at the start and end of each analytical batch to confirm the validity of the calibration curve and sample quantitation. Acceptance criteria for the CCV and LCS were readback concentrations ± 30% of nominal concentration. The method blank acceptance criterion was a readback concentration of PFHxSA < 0.5x the limit of quantitation (LOQ) of the method. The LOQ was 50 ng/mL in the extract. Samples were injected in sequential order (e.g., r01, r02, r03, …, etc.); no duplicate injections of samples were performed.
Assessment of the stability of PFHxSA in corn oil was conducted using the same extraction method as for dosing solutions. Analysis of PFHxSA in corn oil was conducted using the same LC/MS/MS conditions as PFHxSA dosimetry in plasma and liver (Text S4). The average ratio of PFHxSA peak area to PFOSA internal standard peak area for three replicate injections was divided by the average ratio for Day 0 to derive the percentage of recovery for a given day. No calibration curve was generated for the Stability Assessment. For quality control, the extraction blank needed to have a PFHxSA signal that was ≤ 10% the peak area of PFHxSA on Day 0; the daily LCS was acceptable with a PFHxSA/PFOSA area ratio within 30% of the Day 0 LCS. […]

Row | Structure (SMILES) | Human liver/plasma partitioning Kp [1] | Plasma binding of PFHxSA higher than PFHxS [2] | Stability of corn oil solutions ([3]; 2 µg/mL to 20,000 µg/mL, within ±30% of the initial value, up to 14 days, room and refrigerated (4 °C) temperatures) | MeanD14 (mean of percent recoveries for Day 14 replicates) ([3]; corn oil 2 µg/mL, 4 °C) | Replicate percent recoveries, Day 5 ([3]; corn oil 2 µg/mL, 4 °C) | Replicate percent recoveries, Day 7 ([3]; corn oil 2 µg/mL, 4 °C) | Replicate percent recoveries, Day 14 ([3]; corn oil 2 µg/mL, 4 °C) | MeanD14 (mean of percent recoveries for Day 14 replicates) ([3]; corn oil 2 µg/mL, RT) | Replicate percent recoveries, Day 5 ([3]; corn oil 2 µg/mL, RT) | Replicate percent recoveries, Day 7 ([3]; corn oil 2 µg/mL, RT) | Replicate percent recoveries, Day 14 ([3]; corn oil 2 µg/mL, RT) | MeanD14 (mean of percent recoveries for Day 14 replicates) ([3]; corn oil 20,000 µg/mL, 4 °C) | Replicate percent recoveries, Day 5 ([3]; corn oil 20,000 µg/mL, 4 °C) | Replicate percent recoveries, Day 7 ([3]; corn oil 20,000 µg/mL, 4 °C) | Replicate percent recoveries, Day 14 ([3]; corn oil 20,000 µg/mL, 4 °C) | MeanD14 (mean of percent recoveries for Day 14 replicates) ([3]; corn oil 20,000 µg/mL, RT) | Replicate percent recoveries, Day 5 ([3]; corn oil 20,000 µg/mL, RT) | Replicate percent recoveries, Day 7 ([3]; corn oil 20,000 µg/mL, RT) | Replicate percent recoveries, Day 14 ([3]; corn oil 20,000 µg/mL, RT) | solubility ([3]; corn oil, oil or lipid)
1 | O=S(=O)(O)C(F)(F)C(F)(F)C(F)(F)C(F)(F)C(F)(F)C(F)(F)F [PFHxS, perfluorohexane sulfonic acid] | 0.12 |  |  |  |  |  |  |  |  |  |  |  |  |  |  |  |  |  |  | 
2 | NS(=O)(=O)C(F)(F)C(F)(F)C(F)(F)C(F)(F)C(F)(F)C(F)(F)F [PFHxSA, Perfluorohexanesulfonamide] |  | 2.25 fold | stable | 79.3% | 90.8% and 94.3% and 97.9% | 78.3% and 79.5% and 79.3% | 77.3% and 77.6% and 83.0% | 97.3% | 97.4% and 96.8% and 96.1% | 81.3% and 85.5% and 80.6% | 97.0% and 93.3% and 102% | 128% | 110% (2×) and 119% | 119% and 118% and 116% | 130% and 126% and 128% | 88.6% | 97.3% and 103% and 98.1% | 90.1% and 94.3% and 88.4% | 88.0% and 87.2% and 90.5% | 20 mg/mL (≈ 50.1 mM)
